Columns and labels:
JAK-2 enzyme = JAK-2 enzyme (Homo sapiens, UniProt O60674); assay: JAK2 Inhibition Assay; format: biochemical; conditions: 15 μM poly(Glu)4Tyr, 12 μM ATP, 25° C.
How it was run: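 JAK2 kinase in HEPES pH 7.4 buffer with MgCl2, DTT, NaCl and BSA; final 15 μM poly(Glu)4Tyr and 12 μM [33P]ATP. Enzyme added to start, 20 min at 25 °C, TCA stop, filter capture and scintillation count of 33P incorporation; Ki values.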

JAK3 = molecular target: T1, JAK3 (Homo sapiens, UniProt P52333); assay: JAK3 Inhibition Assay; format: biochemical; conditions: 1 μM poly(Glu)4Tyr, 5 μM ATP, 1 nM JAK3, 25° C.; read-out: JAK3 enzyme inhibition data (Ki)
T1 sequence (P52333 1-1124): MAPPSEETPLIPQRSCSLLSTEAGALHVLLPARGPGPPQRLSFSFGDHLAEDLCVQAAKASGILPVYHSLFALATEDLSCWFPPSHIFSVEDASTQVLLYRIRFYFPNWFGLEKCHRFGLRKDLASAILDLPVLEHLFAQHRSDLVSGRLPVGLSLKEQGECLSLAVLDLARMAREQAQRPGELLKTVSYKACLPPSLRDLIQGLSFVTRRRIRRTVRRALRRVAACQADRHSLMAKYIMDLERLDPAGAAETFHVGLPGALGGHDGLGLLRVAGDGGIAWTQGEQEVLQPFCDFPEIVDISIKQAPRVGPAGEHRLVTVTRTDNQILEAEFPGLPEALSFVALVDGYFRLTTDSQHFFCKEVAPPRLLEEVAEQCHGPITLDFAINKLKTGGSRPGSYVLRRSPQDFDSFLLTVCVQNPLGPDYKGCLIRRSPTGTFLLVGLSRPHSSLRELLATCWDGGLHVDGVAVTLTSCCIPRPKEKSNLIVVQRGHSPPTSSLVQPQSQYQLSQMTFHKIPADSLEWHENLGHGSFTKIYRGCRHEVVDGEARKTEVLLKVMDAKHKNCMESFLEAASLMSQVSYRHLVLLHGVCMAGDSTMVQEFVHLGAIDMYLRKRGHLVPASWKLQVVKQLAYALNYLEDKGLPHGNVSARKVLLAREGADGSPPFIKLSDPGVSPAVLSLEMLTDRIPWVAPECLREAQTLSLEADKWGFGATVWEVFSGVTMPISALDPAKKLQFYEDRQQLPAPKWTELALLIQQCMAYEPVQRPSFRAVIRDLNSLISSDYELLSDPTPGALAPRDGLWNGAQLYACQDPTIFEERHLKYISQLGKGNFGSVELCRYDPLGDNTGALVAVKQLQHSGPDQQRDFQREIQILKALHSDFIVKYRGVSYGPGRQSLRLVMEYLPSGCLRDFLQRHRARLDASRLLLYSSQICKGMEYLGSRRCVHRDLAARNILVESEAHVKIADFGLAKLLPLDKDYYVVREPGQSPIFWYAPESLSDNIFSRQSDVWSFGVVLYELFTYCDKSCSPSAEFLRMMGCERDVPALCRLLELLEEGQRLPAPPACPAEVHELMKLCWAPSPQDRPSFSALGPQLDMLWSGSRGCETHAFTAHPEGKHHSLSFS
How it was run: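 Radiometric JAK3 (1 nM) reaction with 5 μM [33P]ATP and 1 μM poly(Glu)4Tyr in HEPES pH 7.4 buffer, run for 20 min at 25 °C. Reactions were stopped with TCA and filter-captured, and 33P incorporation was counted; values reported as Ki.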

Sequence of JAK-2 enzyme (O60674 whole entry, species assumed): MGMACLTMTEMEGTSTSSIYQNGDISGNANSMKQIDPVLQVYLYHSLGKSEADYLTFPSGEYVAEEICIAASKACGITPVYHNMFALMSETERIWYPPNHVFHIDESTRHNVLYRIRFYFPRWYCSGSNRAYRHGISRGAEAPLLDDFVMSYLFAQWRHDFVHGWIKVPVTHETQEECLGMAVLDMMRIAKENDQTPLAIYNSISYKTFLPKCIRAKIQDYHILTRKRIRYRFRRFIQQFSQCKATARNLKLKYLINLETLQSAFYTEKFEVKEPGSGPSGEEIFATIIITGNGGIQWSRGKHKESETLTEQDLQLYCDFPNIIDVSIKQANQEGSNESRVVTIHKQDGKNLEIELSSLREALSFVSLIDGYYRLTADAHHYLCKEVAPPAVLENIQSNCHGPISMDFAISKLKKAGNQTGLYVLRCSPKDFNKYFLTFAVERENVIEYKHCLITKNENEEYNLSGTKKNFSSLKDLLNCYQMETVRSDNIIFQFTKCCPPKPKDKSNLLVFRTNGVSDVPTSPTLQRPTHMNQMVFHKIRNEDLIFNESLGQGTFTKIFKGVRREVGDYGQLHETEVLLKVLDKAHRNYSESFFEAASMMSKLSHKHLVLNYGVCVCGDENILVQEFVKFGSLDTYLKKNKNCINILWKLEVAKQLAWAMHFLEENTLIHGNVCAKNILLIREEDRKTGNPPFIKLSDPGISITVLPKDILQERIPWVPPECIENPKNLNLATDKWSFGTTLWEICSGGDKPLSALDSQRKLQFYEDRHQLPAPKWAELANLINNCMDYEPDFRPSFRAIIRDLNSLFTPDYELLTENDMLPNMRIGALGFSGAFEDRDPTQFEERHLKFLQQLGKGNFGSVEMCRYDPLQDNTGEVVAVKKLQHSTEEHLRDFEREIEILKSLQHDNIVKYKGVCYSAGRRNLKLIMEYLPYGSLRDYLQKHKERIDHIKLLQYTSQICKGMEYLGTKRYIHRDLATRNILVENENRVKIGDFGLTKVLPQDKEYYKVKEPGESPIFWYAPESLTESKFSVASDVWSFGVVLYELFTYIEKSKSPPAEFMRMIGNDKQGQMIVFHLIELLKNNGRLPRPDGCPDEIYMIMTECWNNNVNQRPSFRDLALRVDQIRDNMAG

Row | SMILES | Ki (JAK-2 enzyme) [nM] | Ki (JAK3) [nM]
1 | O=C(c1cc(-c2ncnc3[nH]ccc23)c[nH]1)N1CCC(CO)CC1 [Compound 42] | 100 to 500 | 500 to 5000
2 | CC(C)(C)OC(=O)N1CCCC(C(=O)Nc2nc(-c3ncnc4[nH]ccc34)cs2)C1 (centres unmarked) [Compound 177] | 100 to 500 | 100 to 500
3 | O=C(c1ccc(-c2ncnc3[nH]ccc23)o1)N(CCC(F)(F)F)CC1CC1 [Compound 122] | < 100 | < 100
4 | O=C(CC(F)(F)F)Nc1nc(-c2ncnc3[nH]ccc23)cs1 [Compound 64] | < 100 | < 100
5 | C=CCCC(=O)Nc1nc(-c2ncnc3[nH]ccc23)cs1 [Compound 69] | < 100 | < 100
6 | O=C(CCC(F)(F)F)Nc1nc(-c2ncnc3[nH]ccc23)cs1 [Compound 99] | < 100 | < 100
7 | CCCCN(CC)C(=O)c1cc(-c2ncnc3[nH]cc(C)c23)c[nH]1 [Compound 201] | < 100 | 100 to 500
8 | CC(C)CC(=O)N(CCCC(F)(F)F)c1nc(-c2ncnc3[nH]ccc23)cs1 [Compound 129] | < 100 | 100 to 500
9 | CN1CC(C(=O)Nc2nc(-c3ncnc4[nH]ccc34)cs2)CC1=O (centres unmarked) [Compound 172] | < 100 | 100 to 500

The next lines start with the values.

Row | Ki (JAK-2 enzyme) [nM] | Ki (JAK3) [nM] | SMILES
10 | < 100 | < 100 | CC(C)CNC(=O)c1cc(-c2ncnc3[nH]ccc23)c[nH]1 [Compound 9]
11 | < 100 | < 100 | CC(C)CN(CCC(F)(F)F)C(=O)c1ccc(-c2ncnc3[nH]ccc23)o1 [Compound 211]
12 | < 100 | < 100 | CC(C)(C)CC(=O)Nc1nc(-c2ncnc3[nH]ccc23)cs1 [Compound 66]
13 | < 100 | 100 to 500 | Cc1c[nH]c2ncnc(-c3cnn(CCC(C)C)c3)c12 [Compound 163]
14 | 100 to 500 | 100 to 500 | CC(C(=O)NCc1ccccc1)n1cc(-c2ncnc3[nH]ccc23)cn1 (centres unmarked) [Compound 86]
15 | < 100 | 100 to 500 | CCN(CCO)C(=O)c1cc(-c2ncnc3[nH]ccc23)c[nH]1 [Compound 40]
16 | < 100 | < 100 | O=C(Nc1nc(-c2ncnc3[nH]ccc23)cs1)C1CCN(C(=O)c2ccccc2)CC1 [Compound 173]
17 | < 100 | < 100 | N#CCCN(CC1CC1)C(=O)c1ccc(-c2ncnc3[nH]ccc23)o1 [Compound 125]
18 | 100 to 500 | < 100 | CC(C(=O)NC1CCCC1)n1cc(-c2ncnc3[nH]ccc23)cn1 (centres unmarked) [Compound 75]
19 | < 100 | < 100 | CC(C)n1cc(-c2ncnc3[nH]ccc23)cn1 [Compound 34]
